Each block holds one compound with its values, some of them ahead of it.
What was measured:
[1] = pKa of lipid nanoparticles by TNS (section II); assay type: physicochemical; conditions: F7siRNA-loaded LNP; compared with LNP of straight-chain CL4H6 or CL15H6 (FIG. 1)
Description: The pKa of lipid nanoparticles was measured using p-toluidino-2-naphthalenesulfonic acid (TNS). First, TNS (final concentration: 0.75 μM) and lipid nanoparticles (final concentration: […]) were mixed in buffer solution adjusted to each pH. The fluorescence intensity of the prepared mixture was measured with a microplate reader. The highest and lowest values among the measured values were taken as 100% and 0% charge rates respectively, and the pH indicating 50% charge rate was calculated as pKa.

[2] = Nucleic acid encapsulation rate by Ribogreen (section II); assay type: physicochemical; conditions: for % pDNA encapsulation: pFluc-loaded LNP
Description: The encapsulation rates of siRNA, mRNA, and pDNA of lipid nanoparticles were measured using Ribogreen (manufactured by life technologies).

[3] = system: F7; assay: In vivo F7 knockdown, plasma F7 enzyme activity, ICR mice; conditions: i.v. 0.003-0.1 mg siRNA/kg, plasma at 24 hours, compared with LNP of CL4H6 or CL15H6 (FIG. 2)
Description: Then, each prepared F7siRNA-loaded lipid nanoparticles were administered to ICR mice (4 weeks old, female) and in vivo F7 knockdown activity was examined.
Specifically, each F7siRNA-loaded lipid nanoparticles were intravenously administered to ICR mice at 0.003-0.1 mg siRNA/kg, and plasma F7 enzyme activity at 24 hours later was measured. Relative plasma F7 enzyme activity (%) of mice administered each F7siRNA-loaded lipid nanoparticles was calculated using plasma F7 enzyme activity of untreated mice as 100%. FIG. 2(B) is the results of intravenous administration of each F7siRNA-loaded lipid nanoparticle at 0.1 mg siRNA/kg.

[4] = system: liver; assay: In vivo Fluc activity of FlucmRNA-loaded LNP by in vivo imaging, liver; conditions: Balb/c mice, 6 hours; for Fluc Activity in liver: FlucmRNA-loaded LNP i.v. 0.1 mg mRNA/kg
Summary of the method: (§1)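 Female Balb/c mice, 7 weeks old, received LNP i.v. at 0.1 mg mRNA/kg. At 6 h, luciferin was given via tail vein at 1.5 mg per mouse, and liver and spleen luminescence was imaged as Avg Radiance [p/s/cm2/sr] near 560 nm.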

[5] = system: spleen; assay: In vivo Fluc activity of FlucmRNA-loaded LNP by in vivo imaging, spleen; conditions: Balb/c mice, FlucmRNA-loaded LNP i.v. 0.1 mg mRNA/kg, 6 hours
Summary of the method: as §1

[6] = Average particle size (ζ-Average) and PDI by dynamic light scattering (Zetasizer Nano ZSP); assay type: physicochemical
Summary of the method: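 Lipid nanoparticles dispersed in PBS(−) were sized by dynamic light scattering, giving the ζ-Average diameter and polydispersity index (PDI).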

[7] = Zeta potential in 10 mM HEPES buffer (pH 7.4); assay type: physicochemical
Description: (§2) The average particle size (number-average value) and PDI in PBS(−) and zeta potential in 10 mM HEPES buffer solution (pH 7.4) of lipid nanoparticles were measured using “Zetasizer Nano ZS ZEN3600”, an analyzer utilizing dynamic light scattering (manufactured by Malvern).

[8] = system: F7; assay: In vivo F7 knockdown, plasma F7 enzyme activity (BIOPHEN FVII), Balb/c mice; conditions: i.v. 0.025 mg siRNA/kg, plasma at 24 hours
Summary of the method: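 Female Balb/c mice, 5 weeks old, received F7 siRNA lipid nanoparticles i.v. at 0.025 mg siRNA/kg; plasma F7 activity measured chromogenically (BIOPHEN FVII) 24 h later. Values are % of untreated mice, also expressed as a ratio to MC3-containing nanoparticles set at 1.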

[9] = siRNA/mRNA encapsulation rate by Ribogreen reagent (section IV); assay type: physicochemical; conditions: for % siRNA encapsulation: F7siRNA-loaded LNP, 50:10:38.5:1.5, N/P ratio 6; for % mRNA encapsulation: FlucmRNA-loaded LNP, 50:10:38.5:1.5
Summary of the method: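 LNPs diluted in TE buffer to 8 μg/mL nucleic acid for surface RNA, or to 1.2 μg/mL with 1% Triton X-100 for total RNA. RiboGreen fluorescence (ex 485/em 528 nm) quantified against a Triton-containing standard curve (0-2.5 μg/mL). Encapsulation % = (total − surface)/total × 100.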

[10] = Average particle size and PDI by dynamic light scattering (Zetasizer Nano ZS); assay type: physicochemical
Description: as §2

[11] = system: factor VII (F7); conditions: mouse liver; lipid as LNP carrier of siRNA; cited from earlier work
[12] = pDNA encapsulation rate by Picogreen reagent; assay type: physicochemical; conditions: pDNA (eGFP)-loaded LNP
Description: The encapsulation rate of pDNA of the lipid nanoparticles was measured using Picogreen (registered trademark) reagent (Quant-iT™ dsDNA Assay Kit, broad range, manufactured by Thermofisher Scientific). In encapsulation rate measurement of pDNA, the nucleic acid concentration in solution for measuring nanoparticle surface nucleic acid concentration was set at 1.6 μg/mL, the nucleic acid concentration in solution for measuring total nucleic acid concentration […], and the nucleic acid concentration used for calibration curve 0-0.5 μg/mL, and the same method as the method for measuring encapsulation rate of siRNA and mRNA was carried out except that Picogreen (registered trademark) reagent (Quant-iT™ dsDNA Assay Kit, broad range, manufactured by Thermofisher Scientific) was used as measurement reagent. Encapsulation rate %=(nucleic acid concentration in solution for measuring total nucleic acid concentration (μg/mL)−nucleic acid concentration in solution for measuring nanoparticle surface nucleic acid concentration (μg/mL))/(nucleic acid concentration in solution for measuring total nucleic acid concentration (μg/mL))×100. <Results>

[13] = Storage stability of FlucmRNA-loaded LNP at −80, 5, 25 and 40° C.; assay type: physicochemical
Summary of the method: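 FlucmRNA-loaded LNPs held at −80, 5, 25 or 40° C; at each time point size, PDI and encapsulation measured. Quality deemed maintained while size stays within ±20 nm of preparation day, PDI ≤0.2 and encapsulation ≥80%; value is the period meeting all three.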

[14] = Stability of pDNA-loaded LNP standing at 40° C.; assay type: physicochemical
Description: Prepared lipid nanoparticles were allowed to stand at 40° C., and after keeping for each period, they were evaluated whether quality was well remained according to the following criteria: • Good (O): particle size is within +/−20 nm of the particle size immediately after preparation, and PDI is 0.2 or less, and encapsulation rate is 80% or more; • No good (X): particle size is greater than +/−20 nm of the particle size immediately after preparation, or encapsulation rate is less than 80%.
The lipid nanoparticles which remain in good quality with standing at 40° C. for one week or more can be evaluated as having excellent stability.

[15] = NlucmRNA-loaded LNP, 60:10:40:1
[16] = F7siRNA-loaded LNP, 50:10:38.5:1.5, N/P ratio 6
[17] = FlucmRNA-loaded LNP, 50:10:38.5:1.5
[18] = FlucmRNA-loaded LNP, lipid:DSPC:cholesterol:DMG-PEG2K 50:10:38.5:1.5
[19] = pDNA-loaded LNP after standing at 40° C. 1 M
[20] = pDNA-loaded LNP after standing at 40° C. 1 W

pKa of lipid nanoparticle, compared [1]: lower pKa
% mRNA encapsulation [2, 15]: 91.8%
% pDNA encapsulation ([2]; N/P ratio 6): 94.7%
% pDNA encapsulation ([2]; N/P ratio 9): 91.1 ± 2.1%
PDI [6, 16]: 0.021
ζ-Average (nm) [6, 16]: 97.73 nm
PDI [6, 17]: 0.012
ζ-Average (nm) [6, 18]: 102.40 nm
ζ-potential (mV) [7, 15]: 0.419 mV
ζ-potential (mV) ([7]; pFluc-loaded LNP, N/P ratio 6): −5.84 mV
ζ-potential (mV) ([7]; pFluc-loaded LNP, N/P ratio 9): −1.9 ± 0.6 mV
% siRNA encapsulation [9]: 100.7%
% mRNA encapsulation [9]: 100.24%
PdI [10, 15]: 0.201
ζ-Average (nm) ([10]; NlucmRNA-loaded LNP, lipid:DSPC:cholesterol:PEG-DMG 60:10:40:1): 71.65 nm
ζ-Average (nm) ([10]; pFluc-loaded LNP, 50:10:40:1.5, N/P ratio 6): 86.39 nm
ζ-Average (nm) ([10]; pFluc-loaded LNP, 50:10:40:1.5, N/P ratio 9): 100.9 ± 10.7 nm
PdI ([10]; pFluc-loaded LNP, N/P ratio 6): 0.03
PdI ([10]; pFluc-loaded LNP, N/P ratio 9): 0.12 ± 0.08
Compound: CC(CCC(C(=O)OCCCCCCC(O)(CCCCCCOC(=O)C(CCC(C)CC(C)(C)C)C(C)CC(C)(C)C)CCCCOC(=O)C1CCN(C)CC1)C(C)CC(C)(C)C)CC(C)(C)C (centres unmarked) [CL15G6]
in vivo F7 knockdown activity, compared [3]: equivalent in vivo F7 knockdown activity
Fluc Activity in liver [4]: 6.52E+06 Avg Radiance [p/s/cm2/sr]
Fluc Activity in spleen [5]: 2.77E+06 Avg Radiance [p/s/cm2/sr]
F7 enzyme activity (Ratio using MC3 as 1) ([8]; relative plasma F7 activity of MC3 LNP as 1): 2.69

Compound: CCCCCCCCCCC(O)CN(CCCCC1NC(=O)C(CCCCN(CC(O)CCCCCCCCCC)CC(O)CCCCCCCCCC)NC1=O)CC(O)CCCCCCCCCC (centres unmarked) [cKK-E12]
ED50 in F7 knockdown [11]: 0.002 mg siRNA/kg

encapsulation rate (%), immediately after the preparation [12]: 98.1%
period for which quality remained good, −80° C. ([13]; maximum storage period 1 week): 1 week
period for which quality remained good, 5° C. ([13]; maximum storage period 5 weeks): 5 weeks
period for which quality remained good, 25° C. ([13]; maximum storage period 5 weeks): 5 weeks
period for which quality remained good, 40° C. (weeks) ([13]; maximum storage period 5 weeks): 5 weeks
PDI [6, 16]: 0.020
ζ-Average (nm) [6, 16]: 97.03 nm
PDI [6, 17]: 0.004
ζ-Average (nm) [6, 18]: 81.30 nm
Particle size (nm), immediately after the preparation ([6]; pDNA (eGFP)-loaded LNP, 50:10:38.5:1.5): 98.2 nm
Quality 40° C. 1 M ([14]; pDNA-loaded LNP): ∘
Quality 40° C. 1 W ([14]; pDNA-loaded LNP): ∘
Particle size (nm), 40° C. 1 M [14, 19]: 101.4 nm
encapsulation rate (%), 40° C. 1 M [14, 19]: 98.1%
Particle size (nm), 40° C. 1 W [14, 20]: 97.1 nm
encapsulation rate (%), 40° C. 1 W [14, 20]: 98.0%
% siRNA encapsulation [9]: 99.9%
% mRNA encapsulation [9]: 99.2%
Compound: CCCCCCCC(CCCCCCC)C(=O)OCCCCCCC(O)(CCCCCCOC(=O)C(CCCCCCC)CCCCCCC)CCCCN(CCC)CCC [CL4F 9-7]
Fluc activity in the liver, compared with CL4F6 ([4]; 0.1 mg mRNA/kg, versus LNP comprising CL4F6 (Tables 5 and 6)): higher Fluc activity
Fluc Activity in liver [4]: 1.55E+08 Avg Radiance [p/s/cm2/sr]
Fluc Activity in spleen [5]: 2.43E+06 Avg Radiance [p/s/cm2/sr]
F7 enzyme activity (%) ([8]; untreated mice as 100%): 4.3%

Compound: CCCCC/C=C\C/C=C\CCCCCCCCOC1(OCCCCCCCC/C=C\C/C=C\CCCCC)CCN(C)CC1 [YSK05]
ED50 in F7 knockdown [11]: 0.06 mg siRNA/kg

— patent publication US12458605B2, “Lipid nanoparticle” (National University Corporation Hokkaido University, priority 2020, dated 2025)
